From PubChem BioAssay (NCI)
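Values below derive from 48-hour exposures of cells grown in 96-well plates, with endpoints linearly interpolated between the two concentrations bracketing the appropriate inhibition level. The concentration for 50% growth inhibition is given as GI50. TGI is the concentration that stops growth completely.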

Experiments:
Assay in all cases: DTP human tumour cell line panel, 48 h
[1] = system: U251 CNS
[2] = system: OVCAR-5 ovarian
[3] = system: BT-549 breast
[4] = system: SF-539 CNS
[5] = system: M14 melanoma
[6] = system: NCI-H23 lung
[7] = system: UACC-257 melanoma
[8] = system: OVCAR-4 ovarian
[9] = system: NCI-H226 lung
[10] = system: DU-145 prostate

SMILES | GI50 [1] | TGI [1] | GI50 [2] | TGI [2] | GI50 [3] | TGI [3] | GI50 [4] | TGI [4] | GI50 [5] | TGI [5] | GI50 [6] | TGI [6] | GI50 [7] | TGI [7] | GI50 [8] | TGI [8] | GI50 [9] | TGI [9] | GI50 [10] | TGI [10]
COc1ccc(-c2cn(-c3cc(OC)c(OC)c(OC)c3)c(SCc3ccccc3)n2)cc1OC | > 100 µM | > 100 µM | > 100 µM | > 100 µM | > 100 µM | > 100 µM | > 100 µM | > 100 µM | > 100 µM | > 100 µM | > 100 µM | > 100 µM | > 100 µM | > 100 µM | > 100 µM | > 100 µM | > 100 µM | > 100 µM | > 100 µM | > 100 µM
COc1cc(C(=O)O[C@H](C(=O)NCCCCCNC(=O)[C@@H](OC(=O)c2cc(OC)cc3c(C)cccc23)[C@]2(C)CO2)[C@]2(C)CO2)c2cccc(C)c2c1 | < 0.01 µM | 0.3 µM | 1.52 µM | 5.61 µM | 1.13 µM | 5.8 µM | 0.119 µM | 0.587 µM |  | 0.305 µM | 0.179 µM | 0.665 µM | 2.03 µM | 5.33 µM | 0.877 µM | > 100 µM | 0.93 µM | 4.09 µM | 0.122 µM | 
C=C1C(=O)O[C@H]2[C@H]1CC/C(COC(=O)NCc1cn(C)c3ccccc13)=C\CC[C@@]1(C)O[C@@H]21 | 1.96 µM | 5.24 µM | 1.72 µM | 3.96 µM | 0.469 µM | 1.88 µM | 1.37 µM | 2.7 µM | 1.45 µM | 2.92 µM | 2.01 µM | 4.69 µM | 1.56 µM | 4.03 µM | 2.38 µM | 7.92 µM | 4.38 µM | 20.9 µM | 1.26 µM | 2.55 µM
O=C(CCCCCCCCC(=O)N/N=C\c1ccccc1O)N/N=C\c1ccccc1O | 0.308 µM | 9.14 µM | 3.35 µM | > 90.3 µM | 0.982 µM | > 100 µM | 0.452 µM | 17.4 µM | 0.306 µM | 1.78 µM | 0.75 µM | 21.9 µM | 0.368 µM | 4.07 µM | 0.33 µM | > 100 µM | 0.49 µM | 11 µM | 0.579 µM | 15.5 µM
O=[N+]([O-])O.[Cu+2].[NH-]CC[NH-].[NH-]CC[NH-] | > 10 µM | > 10 µM | > 10 µM | > 10 µM | > 10 µM | > 10 µM | > 10 µM | > 10 µM | > 10 µM | > 10 µM | > 10 µM | > 10 µM | > 10 µM | > 10 µM | > 10 µM | > 10 µM | > 10 µM | > 10 µM | > 10 µM | > 10 µM
CN(C)CCN1C(=O)c2ccccc2N(C)c2ccccc21 | > 100 µM | > 100 µM | > 100 µM | > 100 µM | > 100 µM | > 100 µM | > 100 µM | > 100 µM | > 100 µM | > 100 µM | > 100 µM | > 100 µM | > 100 µM | > 100 µM | > 100 µM | > 100 µM | > 100 µM | > 100 µM | > 100 µM | > 100 µM
